Key:
[1] = tested on: Mus musculus; assay: Effect on nociception on contralateral paw in ICR mouse model of chronic constriction injury-induced neuropathic pain assessed as paw withdrawal threshold at 10 umol/kg, ip administered 7 days post-surgery and measured after 30 mins to 3 hrs post-dose by Von Frey assay; format: organism-based; conditions: in vivo
[2] = tested on: Mus musculus; assay: Antinociceptive activity in ICR mouse model of chronic constriction injury-induced neuropathic pain assessed as inhibition of mechanical allodynia at 10 umol/kg, ip administered 7 days post-surgery and measured after 0.5 hrs post-dose by Von Frey assay relative to control; format: functional
[3] = tested on: Mus musculus; assay: Antinociceptive activity in ICR mouse model of chronic constriction injury-induced neuropathic pain assessed as inhibition of mechanical allodynia at 10 umol/kg, ip administered 7 days post-surgery and measured after 1 hr post-dose by Von Frey assay relative to control; format: functional
[4] = tested on: Mus musculus; assay: Antinociceptive activity in ICR mouse model of chronic constriction injury-induced neuropathic pain assessed as inhibition of mechanical allodynia at 10 umol/kg, ip administered 7 days post-surgery and measured after 3 hrs post-dose by Von Frey assay relative to control; format: functional
[5] = tested on: Mus musculus; assay: Antinociceptive activity in ICR mouse model of chronic constriction injury-induced neuropathic pain assessed as inhibition of mechanical allodynia at 10 umol/kg, ip administered 7 days post-surgery and measured after 2 hrs post-dose by Von Frey assay relative to control; format: functional
[6] = tested on: Mus musculus; assay: Antinociceptive activity in ICR mouse model of chronic constriction injury-induced neuropathic pain assessed as inhibition of mechanical allodynia at 10 umol/kg, ip administered 7 days post-surgery and measured after 5 hrs post-dose by Von Frey assay relative to control; format: functional
[7] = tested on: Mus musculus; assay: Protection ratio of antinociceptive activity in ICR mouse model of chronic constriction injury-induced neuropathic pain assessed as inhibition of mechanical allodynia at 10 umol/kg, ip administered 7 days post-surgery and measured after 3 hrs to 1 hrs post-dose by Von Frey assay; format: functional
[8] = tested on: Mus musculus; assay: Antinociceptive activity in ip dosed ICR mouse model of chronic constriction injury-induced neuropathic pain assessed as inhibition of mechanical allodynia administered 7 days post-surgery and measured after 1 hr post-dose by Von Frey assay; format: functional
[9] = tested on: Mus musculus; assay: Antinociceptive activity in ICR mouse model of chronic constriction injury-induced neuropathic pain assessed as inhibition of mechanical allodynia at 1 umol/kg, ip administered 7 days post-surgery and measured after 3 hrs post-dose by Von Frey assay relative to control; format: functional
[10] = tested on: Mus musculus; assay: Antinociceptive activity in ICR mouse model of chronic constriction injury-induced neuropathic pain assessed as inhibition of mechanical allodynia at 3 umol/kg, ip administered 7 days post-surgery and measured after 0.5 hrs post-dose by Von Frey assay relative to control; format: functional
[11] = tested on: Mus musculus; assay: Antinociceptive activity in ICR mouse model of chronic constriction injury-induced neuropathic pain assessed as inhibition of mechanical allodynia at 3 umol/kg, ip administered 7 days post-surgery and measured after 2 hrs post-dose by Von Frey assay relative to control; format: functional
[12] = tested on: Mus musculus; assay: Antinociceptive activity in ICR mouse model of chronic constriction injury-induced neuropathic pain assessed as inhibition of mechanical allodynia at 1 umol/kg, ip administered 7 days post-surgery and measured after 1 hr post-dose by Von Frey assay relative to control; format: functional
[13] = tested on: Mus musculus; assay: Antinociceptive activity in ICR mouse model of chronic constriction injury-induced neuropathic pain assessed as inhibition of mechanical allodynia at 3 umol/kg, ip administered 7 days post-surgery and measured after 3 hrs post-dose by Von Frey assay relative to control; format: functional
[14] = tested on: Mus musculus; assay: Antinociceptive activity in ICR mouse model of chronic constriction injury-induced neuropathic pain assessed as inhibition of mechanical allodynia at 1 umol/kg, ip administered 7 days post-surgery and measured after 2 hrs post-dose by Von Frey assay relative to control; format: functional
[15] = tested on: Mus musculus; assay: Antinociceptive activity in ICR mouse model of chronic constriction injury-induced neuropathic pain assessed as inhibition of mechanical allodynia at 3 umol/kg, ip administered 7 days post-surgery and measured after 5 hrs post-dose by Von Frey assay relative to control; format: functional
[16] = tested on: Mus musculus; assay: Antinociceptive activity in ICR mouse model of chronic constriction injury-induced neuropathic pain assessed as inhibition of mechanical allodynia at 1 umol/kg, ip administered 7 days post-surgery and measured after 0.5 hrs post-dose by Von Frey assay relative to control; format: functional
[17] = tested on: Mus musculus; assay: Antinociceptive activity in ICR mouse model of chronic constriction injury-induced neuropathic pain assessed as inhibition of mechanical allodynia at 3 umol/kg, ip administered 7 days post-surgery and measured after 1 hr post-dose by Von Frey assay relative to control; format: functional
[18] = tested on: Mus musculus; assay: Antinociceptive activity in ICR mouse model of chronic constriction injury-induced neuropathic pain assessed as inhibition of mechanical allodynia at 1 umol/kg, ip administered 7 days post-surgery and measured after 5 hrs post-dose by Von Frey assay relative to control; format: functional
[19] = target: Cannabinoid receptor 1 (Rattus norvegicus, UniProt P20272); assay: Antagonist activity at rat brain CB1 receptor expressed in HEK-Flp-In cells in presence of [3H]CP55940 measured after overnight incubation by Bright-Glo luminescence assay; format: cell-based
Chain of Cannabinoid receptor 1 (P20272 whole entry): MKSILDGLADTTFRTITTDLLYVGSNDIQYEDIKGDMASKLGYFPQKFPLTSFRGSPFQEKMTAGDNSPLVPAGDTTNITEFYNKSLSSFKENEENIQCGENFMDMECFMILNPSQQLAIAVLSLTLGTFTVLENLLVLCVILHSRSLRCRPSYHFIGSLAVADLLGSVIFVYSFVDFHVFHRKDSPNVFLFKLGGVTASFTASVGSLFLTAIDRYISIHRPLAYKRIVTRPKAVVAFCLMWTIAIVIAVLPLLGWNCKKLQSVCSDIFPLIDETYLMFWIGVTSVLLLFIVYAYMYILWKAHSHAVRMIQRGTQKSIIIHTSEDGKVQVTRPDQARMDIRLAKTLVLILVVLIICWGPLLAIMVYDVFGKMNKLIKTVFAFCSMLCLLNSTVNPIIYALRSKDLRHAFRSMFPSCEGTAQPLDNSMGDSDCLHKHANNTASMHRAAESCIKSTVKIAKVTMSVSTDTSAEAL

[20] = target: Cannabinoid receptor 2 (Rattus norvegicus, UniProt Q9QZN9); assay: Antagonist activity at rat brain CB2 receptor expressed in HEK-Flp-In cells in presence of [3H]CP55940 measured after overnight incubation by Bright-Glo luminescence assay; format: cell-based
Chain of Cannabinoid receptor 2 (Q9QZN9 whole entry, looked up): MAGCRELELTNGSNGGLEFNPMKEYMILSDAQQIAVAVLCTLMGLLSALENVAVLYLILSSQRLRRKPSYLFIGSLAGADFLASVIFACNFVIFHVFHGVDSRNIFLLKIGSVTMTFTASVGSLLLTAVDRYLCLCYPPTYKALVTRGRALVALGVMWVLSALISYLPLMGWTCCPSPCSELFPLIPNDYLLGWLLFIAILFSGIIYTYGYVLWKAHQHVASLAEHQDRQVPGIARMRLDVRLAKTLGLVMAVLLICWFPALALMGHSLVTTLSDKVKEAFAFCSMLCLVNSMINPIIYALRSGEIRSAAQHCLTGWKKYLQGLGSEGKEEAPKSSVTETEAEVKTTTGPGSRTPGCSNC

Row | SMILES | Activity [1] | inhibition in vivo at 10 µmol/kg [2] [%] | inhibition in vivo at 10 µmol/kg [3] [%] | inhibition in vivo at 10 µmol/kg [4] [%] | inhibition in vivo at 10 µmol/kg [5] [%] | inhibition in vivo at 10 µmol/kg [6] [%] | Ratio [7] | ED50 [8] [µmol/kg] | inhibition in vivo at 1 µmol/kg [9] [%] | inhibition in vivo at 3 µmol/kg [10] [%] | inhibition in vivo at 3 µmol/kg [11] [%] | inhibition in vivo at 1 µmol/kg [12] [%] | inhibition in vivo at 3 µmol/kg [13] [%] | inhibition in vivo at 1 µmol/kg [14] [%] | inhibition in vivo at 3 µmol/kg [15] [%] | inhibition in vivo at 1 µmol/kg [16] [%] | inhibition in vivo at 3 µmol/kg [17] [%] | inhibition in vivo at 1 µmol/kg [18] [%] | IC50 [19] [µM] | IC50 [20] [µM]
1 | O=C(O)c1cc(O)c2ccc(-c3ccc(C(F)(F)F)cc3)cc2c1 | Non-Toxic | 23.4 | 64.2 | 35.2 | 59.8 | 0 | 0.34 - 0.63 | – | – | – | – | – | – | – | – | – | – | – | – | –
2 | C#CCCCCN1CCC(c2ccc(-c3cc(C(=O)O)cc4cc(-c5ccc(C(F)(F)F)cc5)ccc34)cc2)CC1 | – | 52.4 | 75.9 | 9.6 | 42.7 | 0 | 0.13 | – | – | – | – | – | – | – | – | – | – | – | – | –
3 | NCCCNC(=O)c1ccc(-c2cc(C(=O)O)cc(-n3cc(-c4ccc(C(F)(F)F)cc4)nn3)c2)s1 | – | 81 | 91.5 | 30.9 | 74 | 10 | 0.34 - 0.63 | – | – | – | – | – | – | – | – | – | – | – | – | –
4 | O=C(O)c1cc(-c2ccc(C3CCNCC3)cc2)cc(-n2cc(-c3ccc(C(F)(F)F)cc3)nn2)c1 | – | 52.4 | 67.4 | 31.9 | 57.2 | 12.7 | – | 3.5 | 8.7 | 44.6 | 44.6 | 18.7 | 35.6 | 18.7 | 0 | 8.7 | 53.3 | 8.7 | – | –
5 | O=C(O)c1cc(-c2ccc(C3CCNCC3)cc2)cc(-c2cn(-c3ccc(C(F)(F)F)cc3)nn2)c1 | Non-Toxic | 70.7 | 86.8 | 55.1 | 71.4 | 6.7 | 0.34 - 0.63 | – | – | – | – | – | – | – | – | – | – | – | – | –
6 | CC(=O)N1CCC(c2ccc(-c3cc(C(=O)O)cc4cc(-c5ccc(C(F)(F)F)cc5)ccc34)cc2)CC1 | Non-Toxic | – | – | – | – | – | – | – | – | – | – | – | – | – | – | – | – | – | – | –
7 | CCC(=O)N1CCC(c2ccc(-c3cc(C(=O)O)cc4cc(-c5ccc(C(F)(F)F)cc5)ccc34)cc2)CC1 | – | 32.9 | 77.2 | 55.7 | 71.6 | 5.6 | 0.72 - 0.92 | – | – | – | – | – | – | – | – | – | – | – | – | –
8 | O=C(O)c1cc(-c2ccc(C3CCNCC3)cc2)c2ccc(-c3ccc(C(F)(F)F)cc3)cc2c1 [PPTN] | Non-Toxic | 87.9 | 100 | 78.6 | 96.4 | 21.3 | – | 1.6 | 4.7 | 62.9 | 76.9 | 19.9 | 64.7 | 10 | 8.7 | 10 | 79.3 | 4.7 | > 50 | > 50

Source: ChEMBL document CHEMBL4616709, “P2Y14 Receptor Antagonists Reverse Chronic Neuropathic Pain in a Mouse Model” (ACS Med Chem Lett, 2020)
